Experimental data taken from US20240208912A1 (Mirati Therapeutics, Inc., priority 2021, published 2024).
Where two headings read alike, the source gives them in different places.

What was measured:
[1] = test system: HCT116 homozygous MTAP knockout cells; test: Proliferation assay (CellTiter-Glo, 10 days) in HCT116 homozygous MTAP knockout cells; format: cell-based; conditions: CellTiter-Glo after 10 days of treatment, read-out: Proliferation IC50 (nM) HCT116 MTAP_KO
Summary of the method: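 CellTiter-Glo viability read on day 11 gives a 10-day IC50. Dosing began one day after seeding, with a 1:10 split into fresh drug-containing medium on day 6. Cells are HCT116 lacking both MTAP alleles via CRISPR/Cas9, run alongside the parental line.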

HCT116 parental cells = test: Proliferation assay (CellTiter-Glo, 10 days) in HCT116 parental cells; format: cell-based; conditions: CellTiter-Glo after 10 days of treatment
Method: (§1) Control samples were analyzed in parallel.
Briefly, on Day 0, 250 HCT116 parental or HCT116 homozygous MTAP knockout cell were seeded in 96 well plates in McCoy's 5A supplemented with […] fetal bovine serum and pen/strep and the cells were incubated overnight at 37° C. plus 5% CO2.
The following day, cells were treated with DMSO vehicle control or a dose response of PRMT5 inhibitors and incubated at 37 C plus 5% CO2 for five days. On Day 6, the cells were trypsinized and split 1:10 into new 96-well plates with fresh medium containing the same concentration of PRMT5 inhibitor and incubated for an additional 5 days at 37° C. plus 5% CO^2.
On Day 11, the viability of the cells was measured using a CTG assay kit (CellTiter-Glo; Promega cat.no G7573) in accordance with the manufacturer's instructions. The IC50 values for each compound after 10 days of treatment were calculated using GraphPad PRISM software.

[2] = test system: PRMT5-dependent Symmetric Di-methyl Arginine signal in HCT116 parental cells; test: SYM11 In-Cell Western in HCT116 parental cells; format: cell-based; conditions: HCT116 parental cells, 4 days of treatment, SYM11/DRAQ5 ratio as percent of DMSO control, read-out: In-cell-Western (SYM11) IC50 (nM) HCT216 parental
Method: as §1
Briefly, on Day 0, 2,000 HCT116 parental or HCT116 homozygous MTAP knockout cells were seeded in 96 well plates in McCoy's 5A supplemented with 10% fetal bovine serum and pen/strep and the cells were incubated overnight at 37° C. plus 5% CO2. The following day, cells were treated with DMSO vehicle control or a dose response of PRMT5 inhibitors, and incubated at 37° C. plus 5% CO^2 for four days.
After 4 days of treatment, the cells were fixed by adding 50 μl of 4% paraformaldehyde solution to each well and the cells were incubated for 20 min at room temperature. The paraformaldehyde solution was removed, 150 μl of ice-cold methanol was added and the plate was placed −20° C. for 10 minutes. The methanol was removed, 150 μl of Odyssey Blocking buffer+0.05% Tween20 was added and the plate was incubated at room temperature with shaking for one hour.
The primary SYM11 antibody solution was removed by aspiration and the wells were washed three consecutive times with phosphate buffered saline containing 0.1% Tween-20 (PBST).
The secondary antibody solution was removed by aspiration and the wells were washed three consecutive times with PBST.
The SYM11 signal and the DRAQ5 signal were quantified using a Li-Cor Odyssey machine reading at […], respectively. The SYM11/DRAQ5 ratio was used to calculate the inhibition of Symmetric Dimethyl Arginine as percent of DMSO control.

PRMT5/MEP50 complex = molecular target: T1, PRMT5/MEP50 complex (Homo sapiens, UniProt O14744); test: PRMT5:MEP50 HotSpot Assay (full-length histone H2A substrate, plus and minus MTA); format: biochemical; conditions: IC50 + 2 μM MTA, in the presence of 2 μM MTA
T1 construct: purchased Reaction Biology Corporation
T1 sequence (O14744 2-637 limits assumed): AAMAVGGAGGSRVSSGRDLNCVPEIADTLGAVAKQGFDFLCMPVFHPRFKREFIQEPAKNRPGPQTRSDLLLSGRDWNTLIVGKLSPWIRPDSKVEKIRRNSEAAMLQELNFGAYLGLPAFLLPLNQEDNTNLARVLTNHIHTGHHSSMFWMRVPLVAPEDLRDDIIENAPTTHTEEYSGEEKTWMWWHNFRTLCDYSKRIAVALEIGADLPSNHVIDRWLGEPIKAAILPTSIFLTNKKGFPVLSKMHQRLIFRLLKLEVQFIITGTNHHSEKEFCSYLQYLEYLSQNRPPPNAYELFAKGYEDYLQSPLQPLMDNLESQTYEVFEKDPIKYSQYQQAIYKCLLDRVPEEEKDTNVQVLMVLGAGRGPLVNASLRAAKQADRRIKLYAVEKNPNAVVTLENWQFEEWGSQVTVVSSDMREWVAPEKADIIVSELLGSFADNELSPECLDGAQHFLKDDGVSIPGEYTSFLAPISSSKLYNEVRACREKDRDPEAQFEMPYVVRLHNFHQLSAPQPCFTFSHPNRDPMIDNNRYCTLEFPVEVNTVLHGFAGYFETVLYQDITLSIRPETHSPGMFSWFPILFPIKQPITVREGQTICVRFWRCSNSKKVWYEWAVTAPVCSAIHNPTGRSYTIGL
T1 sequence (Q9BQA1 2-342 partner limits assumed): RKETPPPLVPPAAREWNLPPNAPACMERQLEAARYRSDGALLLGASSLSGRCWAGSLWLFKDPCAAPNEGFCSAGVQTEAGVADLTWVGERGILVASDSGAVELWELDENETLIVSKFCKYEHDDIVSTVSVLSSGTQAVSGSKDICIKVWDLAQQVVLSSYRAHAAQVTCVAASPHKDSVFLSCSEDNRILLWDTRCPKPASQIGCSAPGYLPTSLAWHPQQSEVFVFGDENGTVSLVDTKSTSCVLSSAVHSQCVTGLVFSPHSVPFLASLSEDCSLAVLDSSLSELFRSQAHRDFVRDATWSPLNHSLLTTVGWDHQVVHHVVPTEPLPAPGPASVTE
Summary of the method: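 Tritiated product on full-length recombinant H2A was counted by scintillation after the stopped reaction was captured on filter paper. Substrate is histone H2A; conditions include plus and minus MTA.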

[3] = test system: PRMT5-dependent Symmetric Di-methyl Arginine signal in HCT116 homozygous MTAP Knockout cells; test: SYM11 In-Cell Western in HCT116 homozygous MTAP knockout cells; format: cell-based; conditions: 4 days of treatment, SYM11/DRAQ5 ratio as percent of DMSO control, read-out: In-cell-Western (SYM11) IC50 (nM) HCT116 MTAP_KO
Summary of the method: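 HCT116 cells with CRISPR homozygous MTAP knockout, alongside parental cells, treated four days with PRMT5 inhibitor dose response at 37° C., 5% CO2 in McCoy's 5A with 10% FBS.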

Structure (SMILES) | IC50 [1] [nM] | IC50 (PRMT5/MEP50 complex) [nM] | IC50 [3] [nM] | IC50 ([1]; Homo sapiens, HCT-116, 240 h) [nM] | IC50 ([3]; Homo sapiens, HCT-116, 96 h) [nM] | IC50 (HCT116 parental cells) [nM] | IC50 [2] [nM] | IC50 ([2]; Homo sapiens, HCT-116, 96 h) [nM] | IC50 (HCT116 parental cells; Homo sapiens, HCT-116, 240 h) [nM]
Cn1ncc(-c2cc([C@H]3CCCO3)c3c(=O)[nH]nc(CN)c3c2)c1-c1sc2ccccc2c1C#N [Example 15-4, (R)-2-(4-(4-(aminomethyl)-1-oxo-8-(THF-2-yl)-1,2-dihydrophthalazin-6-yl)-1-methyl-1H-pyrazol-5-yl)benzo[b]thiophene-3-carbonitrile] | – | 261 | – | 1110 | 551 | – | – | 551 | –
Cn1ncc(-c2ccc3c(=O)[nH]nc(CN)c3c2)c1-c1c(F)cc2ccccc2c1C#N (single isomer, unassigned) [Example 16-2] | – | 111 | 73 | 224 | – | 5920 | > 1000 | – | –
N#Cc1c(OC2CC2)cc(Cl)c(F)c1-c1c(-c2ccc3c(=O)[nH]nc(CN)c3c2)cnn1C(F)F (atropisomer, axis not shown; (M)) [Example 16-106, (M)-2-(4-(4-(aminomethyl)-1-oxo-1,2-dihydrophthalazin-6-yl)-1-(difluoromethyl)-1H-pyrazol-5-yl)-4-chloro-6-cyclopropoxy-3-fluorobenzonitrile] | – | – | – | 11 | – | – | – | – | 1950
CCOc1cc(-c2cnn(C)c2-c2c(F)c(C)c3ncc(Cl)cc3c2C#N)cc2c(CN)n[nH]c(=O)c12 (single isomer, unassigned) [Example 16-111, (P)-6-(4-(4-(aminomethyl)-8-ethoxy-1-oxo-1,2-dihydrophthalazin-6-yl)-1-methyl-1H-pyrazol-5-yl)-3-chloro-7-fluoro-8-methylquinoline-5-carbonitrile] | – | 451 | – | 21 | 344 | – | – | 686 | 57
Cc1cc(-c2cnn(C)c2-c2sc3ccccc3c2C#N)cc2c(CN)n[nH]c(=O)c12 [Example 10-23, 2-[4-[4-(aminomethyl)-8-methyl-1-oxo-2H-phthalazin-6-yl]-2-methyl-pyrazol-3-yl]benzo-thiophene-3-carbonitrile] | – | 126 | – | 30 | 15 | – | – | > 1000 | –
Cc1c(F)c(-c2c(-c3ccc4c(=O)[nH]nc(CN)c4c3)cnn2C)c(C#N)c2ccccc12 (single isomer, unassigned) [Example 16-13, (P)-2-[4-[4-(aminomethyl)-1-oxo-2H-phthalazin-6-yl]-2-methyl-pyrazol-3-yl]-3-fluoro-4-methyl-naphthalene-1-carbonitrile] | 211 | 237 | 232 | – | – | 770 | > 1000 | – | –
COCc1nc2sc(-c3c(-c4ccc5c(=O)[nH]nc(CN)c5c4)cnn3C)c(C#N)c2cc1Cl [Example 4-272, 2-(4-(4-(aminomethyl)-1-oxo-1,2-dihydrophthalazin-6-yl)-1-methyl-1H-pyrazol-5-yl)-5-chloro-6-(methoxymethyl)thieno[2,3-b]pyridine-3-carbonitrile] | – | 260 | – | 245 | 55 | – | – | > 1000 | > 10000
CCOc1cc(-c2cnn(C)c2-c2c(F)c(C)c3cc(Cl)cnc3c2C#N)cc2c(CN)n[nH]c(=O)c12 (single isomer, unassigned) [Example 16-100, (M)-7-(4-(4-(aminomethyl)-8-ethoxy-1-oxo-1,2-dihydrophthalazin-6-yl)-1-methyl-1H-pyrazol-5-yl)-3-chloro-6-fluoro-5-methylquinoline-8-carbonitrile] | – | 1060 | – | – | – | – | – | – | > 10000
Cn1ncc(-c2ccc3c(=O)[nH]nc(CN)c3c2)c1-c1c(F)ccc(OC2CC2)c1C#N (single isomer, unassigned) [Example 16-21, (P)-2-[4-[4-(aminomethyl)-1-oxo-2H-phthalazin-6-yl]-2-methyl-pyrazol-3-yl]-6-(cyclopropoxy)-3-fluoro-benzonitrile] | 112 | 462 | 65 | – | – | – | 4480 | – | 4210

Continued, in another order:

IC50 [1] [nM] | IC50 (PRMT5/MEP50 complex) [nM] | IC50 [3] [nM] | IC50 ([1]; Homo sapiens, HCT-116, 240 h) [nM] | IC50 ([3]; Homo sapiens, HCT-116, 96 h) [nM] | Structure (SMILES) | IC50 (HCT116 parental cells) [nM] | IC50 [2] [nM] | IC50 ([2]; Homo sapiens, HCT-116, 96 h) [nM] | IC50 (HCT116 parental cells; Homo sapiens, HCT-116, 240 h) [nM]
17 | 107 | 4 | – | – | Cn1ncc(-c2ccc3c(=O)[nH]nc(CN)c3c2)c1-c1c(F)ccc(OC2CC2)c1C#N (single isomer, unassigned) [Example 16-22, (M)-2-[4-[4-(aminomethyl)-1-oxo-2H-phthalazin-6-yl]-2-methyl-pyrazol-3-yl]-6-(cyclopropoxy)-3-fluoro-benzonitrile] | 3620 | 1060 | – | –
– | 109 | – | 96 | 96 | CC(=O)Nc1cc(-c2cnn(C)c2-c2sc3ccccc3c2C#N)cc2c(CN)n[nH]c(=O)c12 [Example 15-8, N-(1-(aminomethyl)-7-(5-(3-cyano-benzo[b]thiophen-2-yl)-1-methyl-1H-pyrazol-4-yl)-4-oxo-3,4-dihydrophthal-azin-5-yl)acetamide] | – | – | 720 | 155
8 | 12.3 | 3 | – | – | Cc1c(F)c(-c2c(-c3ccc4c(=O)[nH]nc(CN)c4c3)cnn2C)c(C#N)c2ccccc12 (single isomer, unassigned) [Example 16-14, (M)-2-[4-[4-(aminomethyl)-1-oxo-2H-phthalazin-6-yl]-2-methyl-pyrazol-3-yl]-3-fluoro-4-methyl-naphthalene-1-carbonitrile] | 4400 | 378 | – | –
– | 4.09 | – | 35 | 35 | Cn1ncc(-c2cc(C(F)F)c3c(=O)[nH]nc(CN)c3c2)c1-c1sc2ccccc2c1C#N [Example 10-21, 2-[4-[4-(aminomethyl)-8-(difluoromethyl)-1-oxo-2H-phthalazin-6-yl]-2-methyl-pyrazol-3-yl]benzothiophene-3-carbonitrile] | – | – | > 1000 | –
– | 16.3 | – | 22 | 6 | Cn1ncc(-c2cc([C@@H]3CCCO3)c3c(=O)[nH]nc(CN)c3c2)c1-c1sc2ccccc2c1C#N [Example 15-3, (S)-2-(4-(4-(aminomethyl)-1-oxo-8-(THF-2-yl)-1,2-dihydrophthalazin-6-yl)-1-methyl-1H-pyrazol-5-yl)benzo[b]thiophene-3-carbonitrile] | – | – | 330 | –
– | 38 | – | – | – | Cn1ncc(-c2ccc3c(=O)[nH]nc(CN)c3c2)c1-c1c(F)cc2ccccc2c1C#N (single isomer, unassigned) [Example 16-1] | 757 | 316 | – | –
– | 19 | – | 16 | 6 | Cc1c(F)c(-c2c(-c3cc(Cl)c4c(=O)[nH]nc(CN)c4c3)cnn2C)c(C#N)c2cc(Cl)cnc12 (single isomer, unassigned) [Example 16-110, (M)-6-(4-(4-(aminomethyl)-8-chloro-1-oxo-1,2-dihydrophthalazin-6-yl)-1-methyl-1H-pyrazol-5-yl)-3-chloro-7-fluoro-8-methylquinoline-5-carbonitrile] | – | – | 176 | 423
